Assay results: US6525001B1, “Substituted pyrimidine and pyridine herbicides” (Mid-American Commercialization Corporation, priority 1997, dated 2003)

Legend:
Assay type in all cases: in vivo
[1] = tested on: momingglory (Ipomoea hederacea); assay: Test B pre-/postemergence; set-up: key: 0 is no effect; 10 is complete control
How it was run: (§1)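 Scored visually 0 (none) to 10 (complete control) against untreated plants after twelve to sixteen greenhouse days. Test chemicals, formulated in surfactant-containing non-phytotoxic solvent, applied to soil after planting and, separately, onto 1- to 4-leaf (2–18 cm) plants.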

[2] = tested on: bedstraw (Galium aparine); assay: Test B pre-/postemergence; set-up: key: 0 is no effect; 10 is complete control; details: for Bedstraw plant response rating: Preemergence
How it was run: as §1

soybean (Glycine max) = assay: Test B pre-/postemergence; set-up: key: 0 is no effect; 10 is complete control
How it was run: as §1

[3] = tested on: cocklebur (Xanthium strumarium); assay: Test B pre-/postemergence; set-up: key: 0 is no effect; 10 is complete control; details: for Cocklebur plant response rating: Preemergence
How it was run: as §1

[4] = tested on: sugar beet (Beta vulgaris); assay: Test B pre-/postemergence; set-up: key: 0 is no effect; 10 is complete control
How it was run: as §1

[5] = tested on: giant foxtail (Setaria faberii); assay: Test B pre-/postemergence; set-up: key: 0 is no effect; 10 is complete control
How it was run: as §1

corn (Zea mays) = assay: Test B pre-/postemergence; set-up: key: 0 is no effect; 10 is complete control; details: for Corn plant response rating: Preemergence
How it was run: as §1

[6] = tested on: velvetleaf (Abutilon theophrasti); assay: Test B pre-/postemergence; set-up: key: 0 is no effect; 10 is complete control
How it was run: as §1

[7] = tested on: pigweed (Amaranthus retroflexus); assay: Test B pre-/postemergence; set-up: key: 0 is no effect; 10 is complete control
How it was run: as §1

[8] = tested on: blackgrass (Alopecurus myosuroides); assay: Test B pre-/postemergence; set-up: key: 0 is no effect; 10 is complete control; details: for Blackgrass plant response rating: Preemergence
How it was run: as §1

[9] = tested on: wheat (Triticum aestivum); assay: Test B pre-/postemergence; set-up: key: 0 is no effect; 10 is complete control
How it was run: as §1

wild oat (Avena fatua) = assay: Test B pre-/postemergence; set-up: key: 0 is no effect; 10 is complete control
How it was run: as §1

rape (Brassica napus) = assay: Test B pre-/postemergence; set-up: key: 0 is no effect; 10 is complete control
How it was run: as §1

[10] = tested on: purple nutsedge (Cyperus rotundus); assay: Test B pre-/postemergence; set-up: key: 0 is no effect; 10 is complete control
How it was run: as §1

[11] = tested on: broadleaf signalgrass (Brachiaria decumbens); assay: Test B pre-/postemergence; set-up: key: 0 is no effect; 10 is complete control; details: for B. signalgrass plant response rating: Preemergence
How it was run: as §1

[12] = tested on: crabgrass (Digitaria sanguinalis); assay: Test B pre-/postemergence; set-up: key: 0 is no effect; 10 is complete control; details: for Crabgrass plant response rating: Preemergence
How it was run: as §1

[13] = tested on: duck salad (Heteranthera limosa); assay: Test B flood test
How it was run: (§2)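 Flood test on plants grown to the 2-leaf stage; treated plants kept in greenhouse twelve to sixteen days, then visually rated against controls on a 0 (no effect) to 10 (complete control) scale.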

[14] = tested on: smallflower flatsedge (Cyperus difformis); assay: Test B flood test
How it was run: as §2

[15] = tested on: bamyardgrass (Echinochloa crus-galli); assay: Test B flood test
How it was run: as §2

rice (Oryza sativa) = assay: Test B flood test
How it was run: as §2

[16] = Rate 250 g/ha, Postemergence (so in the source)
[17] = Rate 62 g/ha, Postemergence (flood test)
[18] = Rate 125 g/ha, Postemergence, flood test
[19] = Rate 250 g/ha, Postemergence (flood test species)
[20] = Rate 125 g/ha, Postemergence section (flood test species)

## Cc1cnc(-c2ccc(C#N)cc2)nc1Cc1cccc(C(F)(F)F)c1 [Compound 30]
[1]; Rate 62 g/ha, Postemergence
  Plant response rating, Morningglory: 2
[1]; Rate 62 g/ha, Preemergence
  Morningglory plant response rating: 1
[1]; Rate 125 g/ha, Postemergence
  Morningglory plant response rating: 5
[1]; Rate 125 g/ha, Preemergence
  Morningglory plant response rating: 1
[1]; Rate 250 g/ha, Postemergence
  Plant response rating, Morningglory: 9
[1]; [16]
  Plant response rating, Morningglory: 3
[2]; Rate 62 g/ha, Postemergence
  Plant response rating, Bedstraw: 1
[2]; Rate 62 g/ha
  Bedstraw plant response rating: 3
[2]; Rate 125 g/ha, Postemergence
  Plant response rating, Bedstraw: 6
[2]; Rate 125 g/ha
  Bedstraw plant response rating: 10
[2]; Rate 250 g/ha, Postemergence
  Plant response rating, Bedstraw: 6
[2]; [16]
  Plant response rating, Bedstraw: 10
Soybean (Glycine max); Rate 62 g/ha, Postemergence
  Plant response rating, Soybean: 3
Soybean (Glycine max); Rate 62 g/ha, Preemergence
  Soybean plant response rating: 0
Soybean (Glycine max); Rate 125 g/ha, Postemergence
  Soybean plant response rating: 3
Soybean (Glycine max); Rate 125 g/ha, Preemergence
  Plant response rating, Soybean: 0
Soybean (Glycine max); Rate 250 g/ha, Postemergence
  Plant response rating, Soybean: 6
Soybean (Glycine max); [16]
  Plant response rating, Soybean: 0
[3]; Rate 62 g/ha, Postemergence
  Plant response rating, Cocklebur: 5
[3]; Rate 62 g/ha
  Cocklebur plant response rating: 0
[3]; Rate 125 g/ha, Postemergence
  Plant response rating, Cocklebur: 8
[3]; Rate 125 g/ha
  Cocklebur plant response rating: 0
[3]; Rate 250 g/ha, Postemergence
  Plant response rating, Cocklebur: 8
[3]; [16]
  Plant response rating, Cocklebur: 0
[4]; Rate 62 g/ha, Postemergence
  Plant response rating, Sugarbeets: 10
[4]; Rate 62 g/ha, Preemergence
  Sugarbeets plant response rating: 6
[4]; Rate 125 g/ha, Postemergence
  Sugarbeets plant response rating: 10
[4]; Rate 125 g/ha, Preemergence
  Plant response rating, Sugarbeets: 9
[4]; Rate 250 g/ha, Postemergence
  Plant response rating, Sugarbeets: 10
[4]; [16]
  Plant response rating, Sugarbeets: 10
[5]; Rate 62 g/ha, Postemergence
  Plant response rating, Giant foxtail: 1
[5]; Rate 62 g/ha, Preemergence
  Giant foxtail plant response rating: 1
[5]; Rate 125 g/ha, Postemergence
  Giant foxtail plant response rating: 1
[5]; Rate 125 g/ha, Preemergence
  Giant foxtail plant response rating: 5
[5]; Rate 250 g/ha, Postemergence
  Plant response rating, Giant foxtail: 2
[5]; [16]
  Plant response rating, Giant foxtail: 9
Corn (Zea mays); Rate 62 g/ha, Postemergence
  Plant response rating, Corn: 1
Corn (Zea mays); Rate 62 g/ha
  Corn plant response rating: 0
Corn (Zea mays); Rate 125 g/ha, Postemergence
  Plant response rating, Corn: 2
Corn (Zea mays); Rate 125 g/ha
  Corn plant response rating: 0
Corn (Zea mays); Rate 250 g/ha, Postemergence
  Plant response rating, Corn: 2
Corn (Zea mays); [16]
  Plant response rating, Corn: 0
[6]; Rate 62 g/ha, Postemergence
  Plant response rating, Velvetleaf: 5
[6]; Rate 62 g/ha, Preemergence
  Velvetleaf plant response rating: 1
[6]; Rate 125 g/ha, Postemergence
  Velvetleaf plant response rating: 6
[6]; Rate 125 g/ha, Preemergence
  Plant response rating, Velvetleaf: 2
[6]; Rate 250 g/ha, Postemergence
  Plant response rating, Velvetleaf: 8
[6]; [16]
  Plant response rating, Velvetleaf: 6
[7]; Rate 62 g/ha, Postemergence
  Plant response rating, Redroot pigweed: 7
[7]; Rate 62 g/ha, Preemergence
  Redroot pigweed plant response rating: 2
[7]; Rate 125 g/ha, Postemergence
  Redroot pigweed plant response rating: 9
[7]; Rate 125 g/ha, Preemergence
  Redroot pigweed plant response rating: 7
[7]; Rate 250 g/ha, Postemergence
  Plant response rating, Redroot pigweed: 9
[7]; [16]
  Plant response rating, Redroot pigweed: 10
[8]; Rate 62 g/ha, Postemergence
  Plant response rating, Blackgrass: 0
[8]; Rate 62 g/ha
  Blackgrass plant response rating: 0
[8]; Rate 125 g/ha, Postemergence
  Plant response rating, Blackgrass: 1
[8]; Rate 125 g/ha
  Blackgrass plant response rating: 2
[8]; Rate 250 g/ha, Postemergence
  Plant response rating, Blackgrass: 1
[8]; [16]
  Plant response rating, Blackgrass: 2
[9]; Rate 62 g/ha, Postemergence
  Wheat plant response rating: 1
[9]; Rate 62 g/ha, Preemergence
  Wheat plant response rating: 0
[9]; Rate 125 g/ha, Postemergence
  Wheat plant response rating: 2
[9]; Rate 125 g/ha, Preemergence
  Plant response rating, Wheat: 0
[9]; Rate 250 g/ha, Postemergence
  Plant response rating, Wheat: 2
[9]; [16]
  Plant response rating, Wheat: 0
Wild oat (Avena fatua); Rate 62 g/ha, Postemergence
  Wild oats plant response rating: 1
Wild oat (Avena fatua); Rate 62 g/ha, Preemergence
  Wild oats plant response rating: 1
Wild oat (Avena fatua); Rate 125 g/ha, Postemergence
  Wild oats plant response rating: 2
Wild oat (Avena fatua); Rate 125 g/ha, Preemergence
  Plant response rating, Wild oats: 1
Wild oat (Avena fatua); Rate 250 g/ha, Postemergence
  Plant response rating, Wild oats: 2
Wild oat (Avena fatua); [16]
  Plant response rating, Wild oats: 2
Rape (Brassica napus); Rate 62 g/ha, Postemergence
  Plant response rating, Rape: 4
Rape (Brassica napus); Rate 62 g/ha, Preemergence
  Rape plant response rating: 0
Rape (Brassica napus); Rate 125 g/ha, Postemergence
  Rape plant response rating: 8
Rape (Brassica napus); Rate 125 g/ha, Preemergence
  Rape plant response rating: 2
Rape (Brassica napus); Rate 250 g/ha, Postemergence
  Plant response rating, Rape: 10
Rape (Brassica napus); [16]
  Plant response rating, Rape: 3
[10]; Rate 62 g/ha, Postemergence
  Plant response rating, Nutsedge: 0
[10]; Rate 62 g/ha, Preemergence
  Nutsedge plant response rating: 0
[10]; Rate 125 g/ha, Postemergence
  Nutsedge plant response rating: 0
[10]; Rate 125 g/ha, Preemergence
  Nutsedge plant response rating: 0
[10]; Rate 250 g/ha, Postemergence
  Plant response rating, Nutsedge: 2
[10]; [16]
  Plant response rating, Nutsedge: 0
[11]; Rate 62 g/ha, Postemergence
  Plant response rating, B. signalgrass: 1
[11]; Rate 62 g/ha
  B. signalgrass plant response rating: 1
[11]; Rate 125 g/ha, Postemergence
  Plant response rating, B. signalgrass: 2
[11]; Rate 125 g/ha
  B. signalgrass plant response rating: 4
[11]; Rate 250 g/ha, Postemergence
  Plant response rating, B. signalgrass: 2
[11]; Rate 250 g/ha, Postemergence as printed in head r139 (second section for compounds 26-50)
  Plant response rating, B. signalgrass: 6
[12]; Rate 62 g/ha, Postemergence
  Plant response rating, Crabgrass: 1
[12]; Rate 62 g/ha
  Crabgrass plant response rating: 1
[12]; Rate 125 g/ha, Postemergence
  Plant response rating, Crabgrass: 1
[12]; Rate 125 g/ha
  Crabgrass plant response rating: 3
[12]; Rate 250 g/ha, Postemergence
  Plant response rating, Crabgrass: 7
[12]; [16]
  Plant response rating, Crabgrass: 8
[13]; [17]
  Plant response rating, Ducksalad: 3
[13]; [18]
  Plant response rating, Ducksalad: 4
[13]; [19]
  Plant response rating, Ducksalad: 5
[14]; [17]
  Plant response rating, S. Flatsedge: 4
[14]; [20]
  S. Flatsedge plant response rating: 6
[14]; [19]
  Plant response rating, S. Flatsedge: 8
[15]; [17]
  Plant response rating, Barnyardgrass: 3
[15]; [18]
  Plant response rating, Barnyardgrass: 3
[15]; [19]
  Plant response rating, Barnyardgrass: 4
Rice (Oryza sativa); [17]
  Plant response rating, Rice: 1
Rice (Oryza sativa); [20]
  Rice plant response rating: 1
Rice (Oryza sativa); [19]
  Plant response rating, Rice: 2
